Experimental data from patent publication US12312359B2 (Vitae Pharmaceuticals, LLC, priority 2016, dated 2025).
pEC50, pIC50: −log10 of the molar value.

Experiments:
[1] = tested on: human acute monocytic leukemia cell line MV-4-11; assay: Assay 2: cell proliferation assay (ATP quantitation, CellTiter-Glo), MV-4-11; type: cell-based; details: MV-4-11 cells
How it was run: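 MV-4-11 cells, 1.67×10^4 per well in medium with 10% FBS, were exposed to compound for 72 h at 37° C., 5% CO2; HL-60 cells served as toxicity control. Proliferation read as ATP content by CellTiter-Glo luminescence.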

[2] = biological target: T1, biotinylated wild-type menin and MLL-AF9 fusion protein (menin/MLL binding) (Homo sapiens, UniProt O00255); assay: Assay 1: menin/MLL binding AlphaLISA assay, wild-type menin; details: Table 30; column head does not say wild-type or mutated menin
T1 construct: made in house; host or cells: menin: E. coli; MLL-AF9-FLAG: HEK293 cells, used as cleared lysate
T1 sequence (O00255 1-610): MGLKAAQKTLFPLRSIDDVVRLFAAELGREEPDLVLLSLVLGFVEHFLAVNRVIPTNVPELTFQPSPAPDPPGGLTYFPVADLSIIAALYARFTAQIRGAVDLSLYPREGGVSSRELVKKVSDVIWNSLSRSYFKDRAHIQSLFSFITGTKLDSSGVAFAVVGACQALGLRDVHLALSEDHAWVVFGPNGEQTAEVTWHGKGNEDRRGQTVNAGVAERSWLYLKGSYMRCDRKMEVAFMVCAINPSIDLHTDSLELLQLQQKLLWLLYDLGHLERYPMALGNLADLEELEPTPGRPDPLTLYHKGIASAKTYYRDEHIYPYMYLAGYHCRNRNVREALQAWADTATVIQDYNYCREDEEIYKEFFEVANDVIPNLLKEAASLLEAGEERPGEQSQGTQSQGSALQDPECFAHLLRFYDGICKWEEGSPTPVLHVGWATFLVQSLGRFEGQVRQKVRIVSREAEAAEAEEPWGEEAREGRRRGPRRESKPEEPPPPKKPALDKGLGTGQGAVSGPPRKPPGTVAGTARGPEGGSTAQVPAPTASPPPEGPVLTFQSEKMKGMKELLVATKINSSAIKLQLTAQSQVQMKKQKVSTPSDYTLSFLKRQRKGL
How it was run: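 Compound was preincubated 30 min at room temperature with biotinylated menin (5 nM) and MLL-AF9-FLAG lysate from HEK293 cells, pH 7.4 buffer with 5% DMSO and DTT. Bead-based Alpha signal after 60 min with streptavidin donor and anti-FLAG acceptor beads; four-parameter logistic fit gave IC50.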

## CC(C)N(C)C(=O)c1cc(F)ccc1Oc1cncnc1N1CC2(CCN(C[C@H]3CC[C@H](NS(C)(=O)=O)CC3)CC2)C1 [Example 93, 5-fluoro-N-isopropyl-N-methyl-2-((4-(7-(((1r,4r)-4-(methylsulfonamido)cyclohexyl)methyl)-2,7-diazaspiro [3.5]nonan-2-yl)pyrimidin-5-yl)oxy)benzamide]
[1]; Homo sapiens, MV4-11, 72 h
  pEC50: 6.00 to 7.00
[2]
  pIC50: > 7.00

## Fc1ccc(Oc2cncnc2N2CC3(CN(CC4CCOCC4)C3)C2)c(-c2cccnc2C2CC2)c1 [Example 177, 2-(5-(2-(2-cyclopropylpyridin-3-yl)-4-fluorophenoxy)pyrimidin-4-yl)-6-((tetrahydro-2H-pyran-4-yl)methyl)-2,6-diazaspiro[3.3] heptane]
[1]; Homo sapiens, MV4-11, 72 h
  pEC50: > 7.00
[2]
  pIC50: > 7.00

## CC(C)N(C(=O)c1cc(F)ccc1Oc1cncnc1N1CC2(CCN(CC3CC3)C2)C1)C(C)C [Example 103, 2-((4-(6-(cyclopropylmethyl)-2,6-diazaspiro [3.4]octan-2-yl)pyrimidin-5-yl)oxy)-5-fluoro-N,N-diisopropylbenzamide]
[1]; Homo sapiens, MV4-11, 72 h
  pEC50: 6.00 to 7.00
[2]
  pIC50: > 7.00

## CC(C)N(C(=O)c1cc(F)ccc1Oc1cncnc1N1CCC2(CC(N)C(Cc3ccc4[nH]c(=O)[nH]c4c3)C2)C1)C(C)C (single isomer, unassigned) [Example 25, 2-((4-(7-amino-8-((2-oxo-2,3-dihydro-1H-benzo[d]imidazol-5-yl)methyl)-2-azaspiro[4.4]nonan-2-yl)pyrimidin-5-yl)oxy)-5-fluoro-N,N-diisopropylbenzamide]
[1]; 72 h
  pEC50: ≤ 6.00
[2]
  pIC50: > 7.00

## CC(C)C(=O)N(CC(N)=O)c1cc(F)ccc1Oc1cncnc1N1CCC2(CCN(Cc3ccc4[nH]c(=O)[nH]c4c3)C2)C1 (stereo not drawn) [Example 73, N-(2-amino-2-oxoethyl)-N-(5-fluoro-2-((4-(7-((2-oxo-2,3-dihydro-1H-benzo[d]imidazol-5-yl)methyl)-2,7-diazaspiro[4.4]nonan-2-yl)pyrimidin-5-yl)oxy)phenyl)isobutyramide]
[1]; Homo sapiens, MV4-11, 72 h
  pEC50: 6.00 to 7.00
[2]
  pIC50: > 7.00

## CC(C)N(C)C(=O)c1cc(F)ccc1Oc1cncnc1N1CC2(CC(NC[C@H]3CC[C@H](NC(=O)OC(C)(C)C)CC3)C2)C1 [Example 83, tert-butyl ((1r,4r)-4-(((2-(5-(4-fluoro-2-(isopropyl(methyl)carbamoyl)phenoxy)pyrimidin-4-yl)-2-azaspiro[3.3]heptan-6-yl)amino)methyl)cyclohexyl)carbamate]
[1]; Homo sapiens, MV4-11, 72 h
  pEC50: 6.00 to 7.00
[2]
  pIC50: > 7.00

## CCN(C(=O)C(C)C)c1cc(F)ccc1Oc1cncnc1N1CC2(CCN(CC3CCOCC3)C2)C1 [Example 156, N-ethyl-N-(5-fluoro-2-((4-(6-((tetrahydro-2H-pyran-4-yl)methyl)-2,6-diazaspiro[3.4]octan-2-yl)pyrimidin-5-yl)oxy)phenyl)iso-butyramide]
[1]; Homo sapiens, MV4-11, 72 h
  pEC50: 6.00 to 7.00
[2]
  pIC50: > 7.00

## N#Cc1ccc(-c2cc(F)ccc2Oc2cncnc2N2CCC3(CCN(Cc4ccc5c(c4)CC(=O)N5)C3)C2)c(C2CC2)c1 (stereo not drawn) [Example 204, 2-cyclopropyl-5′-fluoro-2′-((4-(7-((2-oxoindolin-5-yl)methyl)-2,7-diazaspiro[4.4]nonan-2-yl)pyrimidin-5-yl)oxy)-[1,1′-biphenyl]-4-carbonitrile]
[1]; Homo sapiens, MV4-11, 72 h
  pEC50: 6.00 to 7.00
[2]
  pIC50: > 7.00

## COC(=O)N(c1cc(F)ccc1Oc1cncnc1N1CCC2(CCN(Cc3ccc4[nH]c(=O)[nH]c4c3)C2)C1)C(C)C (stereo not drawn) [Example 144, methyl (5-fluoro-2-((4-(7-((2-oxo-2,3-dihydro-1H-benzo[d]imidazol-5-yl)methyl)-2,7-diazaspiro[4.4]nonan-2-yl)pyrimidin-5-yl)oxy)phenyl)(iso-propyl)carbamate]
[1]; Homo sapiens, MV4-11, 72 h
  pEC50: > 7.00
[2]
  pIC50: > 7.00

## N#Cc1ccc(-c2cc(F)ccc2Oc2cncnc2N2CCC3(CCN(Cc4ccc(N5CCCC5=O)cc4)C3)C2)c(C2CC2)c1 (stereo not drawn) [Example 195, 2-cyclopropyl-5′-fluoro-2′-((4-(7-(4-(2-oxopyrrolidin-1-yl)benzyl)-2,7-diazaspiro [4.4]nonan-2-yl)pyrimidin-5-yl)oxy)-[1,1′-biphenyl]-4-carbonitrile]
[1]; Homo sapiens, MV4-11, 72 h
  pEC50: 6.00 to 7.00
[2]
  pIC50: > 7.00

## CC(C)N(C(=O)c1cc(F)ccc1Oc1cncnc1N1CC2(CCN(CC(C)(C)O)CC2)C1)C(C)C [Example 89, 5-fluoro-2-((4-(7-(2-hydroxy-2-methylpropyl)-2,7-diazaspiro[3.5]nonan-2-yl)pyrimidin-5-yl)oxy)-N,N-diisopropylbenzamide]
[1]; Homo sapiens, MV4-11, 72 h
  pEC50: 6.00 to 7.00
[2]
  pIC50: > 7.00

## CC(C)c1nccn1-c1cc(F)ccc1Oc1cncnc1N1CCC2(CCN(Cc3ccc4[nH]c(=O)[nH]c4c3)C2)C1 (stereo not drawn) [Example 53, 5-((7-(5-(4-fluoro-2-(2-isopropyl-1H-imidazol-1-yl)phenoxy)pyrimidin-4-yl)-2,7-diazaspiro[4.4]nonan-2-yl)methyl)-1H-benzo[d]imidazol-2(3H)-one]
[1]; Homo sapiens, MV4-11, 72 h
  pEC50: > 7.00
[2]
  pIC50: > 7.00

## CC(C)N(C(=O)c1cc(F)ccc1Oc1cncnc1N1CCC2(CCN(Cc3ccc4[nH]c(=O)[nH]c4c3)C2)C1)C(C)C (single isomer, unassigned) [Example 1A, 5-fluoro-N,N-diisopropyl-2-((4-(7-((2-oxo-2,3-dihydro-1H-benzo[d]imidazol-5-yl)methyl)-2,7-diazaspiro[4.4]nonan-2-yl)pyrimidin-5-yl)oxy)benzamide]
[1]; Homo sapiens, MV4-11, 72 h
  pEC50: > 7.00
[2]
  pIC50: > 7.00

## COC(=O)N(C)c1cc(F)ccc1Oc1cncnc1N1CCC2(CCN(Cc3ccc4[nH]c(=O)[nH]c4c3)C2)C1 (stereo not drawn) [Example 207, methyl (5-fluoro-2-((4-(7-((2-oxo-2,3-dihydro-1H-benzo[d]imidazol-5-yl)methyl)-2,7-diazaspiro[4.4]nonan-2-yl)pyrimidin-5-yl)oxy)phenyl) (methyl)carbamate]
[1]; Homo sapiens, MV4-11, 72 h
  pEC50: 6.00 to 7.00
[2]
  pIC50: > 7.00

## COC(=O)[C@@H]1CC1c1cc(F)ccc1Oc1cncnc1N1CCC2(CCN(Cc3ccc4[nH]c(=O)[nH]c4c3)C2)C1 (stereo partly drawn) [Example 37, Methyl 2-(5-fluoro-2-((4-(7-((2-oxo-2,3-dihydro-1H-benzo[d]imidazol-5-yl)methyl)-2,7-diazaspiro[4.4]nonan-2-yl)pyrimidin-5-yl)oxy)phenyl)cyclopropanecarboxylate]
[1]; Homo sapiens, MV4-11, 72 h
  pEC50: 6.00 to 7.00
[2]
  pIC50: > 7.00

## CC(C)c1ccccc1-c1cc(F)ccc1Oc1cncnc1N1CCC2(CCN(Cc3ccc4[nH]c(=O)[nH]c4c3)C2)C1 (single isomer, unassigned) [Example 41A, 5-((7-(5-((5-fluoro-2′-isopropyl-[1,1′-biphenyl]-2-yl)oxy)pyrimidin-4-yl)-2,7-diazaspiro[4.4]nonan-2-yl)methyl)-1H-benzo[d]imidazol-2(3H)-one]
[1]; Homo sapiens, MV4-11, 72 h
  pEC50: > 7.00
[2]
  pIC50: > 7.00

## Cc1cc(C#N)cc(C)c1-c1cc(F)ccc1Oc1cncnc1N1CCC2(CCN(Cc3ccc4[nH]c(=O)[nH]c4c3)C2)C1 (stereo not drawn) [Example 51, 5′-fluoro-2,6-dimethyl-2′-((4-(7-((2-oxo-2,3-dihydro-1H-benzo[d]imidazol-5-yl)methyl)-2,7-diazaspiro[4.4]nonan-2-yl)pyrimidin-5-yl)oxy)-[1,1′-biphenyl]-4-carbonitrile]
[1]; Homo sapiens, MV4-11, 72 h
  pEC50: > 7.00
[2]
  pIC50: > 7.00

## CC(C)c1ccccc1-c1cc(F)ccc1Oc1cncnc1N1CC2(CN(C(=O)Cc3ccc(C#N)cc3)C2)C1 [Example 228, 4-(2-(6-(5-((5-fluoro-2′-isopropyl-[1,1′-biphenyl]-2-yl)oxy)pyrimidin-4-yl)-2,6-diazaspiro[3.3]heptan-2-yl)-2-oxoethyl)benzonitrile]
[1]; Homo sapiens, MV4-11, 72 h
  pEC50: 6.00 to 7.00
[2]
  pIC50: > 7.00
